According to US8426447B2, “Spiro-tricyclic ring compounds as beta-secretase modulators and methods of use” (Amgen Inc., priority 2008, dated 2013):

Tests used:
BACE1 [1] = target: T1, BACE1 (Homo sapiens, UniProt P56817); experiment: In Vitro Enzymatic BACE FRET (Fluorescence Resonance Energy Transfer) Assay; type: biochemical; conditions: read-out: BACE1 FRET assay
Description: In Vitro Enzymatic BACE FRET (Fluorescence Resonance Energy Transfer) Assay (Enzyme Assay Data in the Example Tables I, II, III & IV) The assay buffer used in this screen is 0.05 M acetate, pH 4.2, 10% DMSO final, 100 uM genapol (which is a nonionic detergent, below its Critical Micelle Concentration). […] This assay is effectively started by the addition of FRET substrate (50 nM) and the combination is incubated for one hour. The FRET assay is terminated with by addition of Tris buffer, which raises the pH to neutrality, and the fluorescence is determined. The FRET substrate is a peptide with commercially available fluorophore and quencher, on opposite sides of the BACE cleavage site. […]

BACE1 [2] = target: T1, BACE1; experiment: In Vitro BACE Cell-based Assay (HEK cell assay): Aβ40 in conditioned medium of cells stably expressing Amyloid Precursor Protein, sandwich ELISA; conditions: read-out: HEK cell assay
Description: In Vitro BACE Cell-based Assay
The cell-based assay measures inhibition or reduction of Aβ40 in conditioned medium of test compound treated cells expressing amyloid precursor protein.
Cells stably expressing Amyloid Precursor Protein (APP) were plated at a density of 40K cells/well in 96 well plates (Costar). The cells were cultivated for 24 hours at 37° C. and 5% CO2 in DMEM supplemented with 10% FBS. The test compounds were then added to cells in 10-point dose response concentrations with the starting concentration being either 100 μM or 10 μM. The compounds were diluted from stock solutions in DMSO and the final DMSO concentration of the test compounds on cells was 0.1%. After 24 h of incubation with the test compounds the supernatant conditioned media was collected and the Aβ 40 levels were determined using a sandwich ELISA. The IC50 of the compound was calculated from the percent of control or percent inhibition of Aβ 40 as a function of the concentration of the test compound.
The sandwich ELISA to detect Aβ 40 was performed in 96 well microtiter plates, which were pre-treated with goat anti-rabbit IgG (Pierce). The capture and detecting antibody pair that were used to detect Aβ 40 from cell supernatants were affinity purified pAb40 (Biosource) and biotinylated 6E10 (Signet Labs Inc.), respectively. The optimal concentration for the pAb40 antibody was 3 μg/ml in Superblock/TBS (Pierce) that was supplemented with 0.05% Tween 20 (Sigma).
Cellular supernatants were incubated with the capture antibody for 3 h at 4° C., followed by 3 wash steps in TBS-tween (0.05%). The detecting antibody incubation was for 2 h at 4° C., again followed by the wash steps as described previously. The final readout of the ELISA is Time-Resolved Fluorescence (counts per minute) using Delfia reagents Streptavidin-Europium and Enhancement solutions (Perkin Elmer) and the Victor 2 multilabel counter (Perkin Elmer).

[3] = in vitro BACE FRET enzyme assay, IC50 class symbols
[4] = HEK cell-based assay, Aβ40 in conditioned medium, IC50 class symbols

T1 sequence (P56817 46-501, species assumed): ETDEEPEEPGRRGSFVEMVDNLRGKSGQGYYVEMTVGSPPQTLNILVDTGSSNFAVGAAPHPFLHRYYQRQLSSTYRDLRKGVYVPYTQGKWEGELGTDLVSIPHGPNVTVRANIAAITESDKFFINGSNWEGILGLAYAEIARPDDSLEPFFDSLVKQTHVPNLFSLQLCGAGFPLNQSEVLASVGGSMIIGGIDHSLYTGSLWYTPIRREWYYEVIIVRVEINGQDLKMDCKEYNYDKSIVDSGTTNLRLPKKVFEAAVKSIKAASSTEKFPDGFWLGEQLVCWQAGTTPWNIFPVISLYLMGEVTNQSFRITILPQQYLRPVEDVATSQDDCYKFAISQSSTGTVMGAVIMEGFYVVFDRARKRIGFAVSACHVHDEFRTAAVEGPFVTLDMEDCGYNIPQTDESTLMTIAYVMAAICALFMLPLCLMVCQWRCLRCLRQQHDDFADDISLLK

| SMILES | IC50 (BACE1 [1]; Table IV, class symbols) [µM] | IC50 (BACE1 [2]; Table IV, class symbols) [µM] | IC50 (BACE1 [1]) [µM] | further results |
| --- | --- | --- | --- | --- |
| Cc1nc(C)c(-c2ccc3c(c2)[C@@]2(COC(N)=N2)c2cc(OCC(C)(C)C)ccc2O3)s1 [compound 837] | 0.1 to 1 | > 5 |  |  |
| NC1=N[C@@]2(CO1)c1cc(-c3cccnc3F)ccc1Oc1ccc(Cl)nc12 [compound 392] |  |  |  | IC50 (BACE1 [1]; [3]): 0.1 to 1 µM; IC50 (BACE1 [2]; [4]): 0.1 to 1 µM |
| NC1=N[C@@]2(CO1)c1ccccc1Oc1ccc(-c3cnc4ccccc4c3)cc12 [compound 628] | > 5 | > 5 |  |  |
| CC(C)(C)CNc1cc2c(cn1)Oc1ccc(-c3cccnc3)cc1[C@@]21COC(N)=N1 [compound 440] |  |  | < 0.1 | IC50 (BACE1 [2]; HEK cells): < 0.1 µM |
| COc1ccc(-c2ccc3c(c2)[C@@]2(COC(N)=N2)c2cc(C#CC(C)(C)OC)cnc2O3)cn1 [compound 767] |  |  | 0.1 to 1 | IC50 (BACE1 [2]): 0.1 to 1 µM |
| COC(=O)CN1CCN(c2cc3c(cn2)Oc2ccc(-c4cccnc4)cc2[C@@]32COC(N)=N2)CC1 [compound 438] |  |  | < 0.1 | IC50 (BACE1 [2]; HEK cells): < 0.1 µM |
| NC1=N[C@@]2(CO1)c1cc(-c3cccnc3)ccc1Oc1cnc(C3=CCOCC3)cc12 [compound 790] |  |  | < 0.1 | IC50 (BACE1 [2]): < 0.1 µM |
| CC(C)(C#N)COc1ccc2c(c1)[C@]1(COC(N)=N1)c1cc(-c3cccnc3)ccc1O2 [Example 134, (S)-3-(2-amino-2′-(pyridin-3-yl)-5H-spiro[oxazole-4,9′-xanthene]-7′-yloxy)-2,2-dimethylpropanenitrile] |  |  |  | IC50 (BACE1 [1]; Table III, IC50's in uM ranges): < 0.1 µM; IC50 (BACE1 [2]; Table III, IC50's in uM ranges): < 0.1 µM |
| COCC[C@@H]1CN(c2ccc3c(c2)[C@]2(COC(N)=N2)c2cc(-c4cccnc4)ccc2O3)CCO1 [compound 421] |  |  | 0.1 to 1 | IC50 (BACE1 [2]; HEK cells): 0.1 to 1 µM |
| NC1=N[C@]2(CO1)c1cc(-c3ccc(OC(F)F)cc3)ccc1Oc1ccc(-c3cncnc3)cc12 [compound 773] |  |  | < 0.1 | IC50 (BACE1 [2]): 0.1 to 1 µM |
| COC(=O)/C=C/c1ccc2c(c1)[C@]1(COC(N)=N1)c1cc(-c3cccnc3)ccc1O2 [compound 947] |  |  | 0.1 to 1 | IC50 (BACE1 [2]): 0.1 to 1 µM |
| COC(=O)c1ccc2c(c1)[C@@]1(COC(N)=N1)c1cc(OCC(C)(C)C)ccc1O2 [compound 850] | 0.1 to 1 | 1 to 5 |  |  |
| COc1ccc(-c2ccc3c(c2)[C@]2(COC(N)=N2)c2cc(-c4cncnc4)ccc2O3)cc1OC [compound 830] | < 0.1 | 0.1 to 1 |  |  |
| COC1CN(c2cnc3c(c2)[C@]2(COC(N)=N2)c2cc(-c4cc(F)ccc4F)ccc2O3)C1 [compound 456] |  |  | < 0.1 | IC50 (BACE1 [2]; HEK cells): < 0.1 µM |
| NC1=N[C@@]2(CO1)c1cc(-c3cccnc3)ccc1Oc1cnc(C(=O)CCCCO)cc12 [compound 612] | < 0.1 | 0.1 to 1 |  |  |
| NC1=N[C@@]2(CO1)c1cc(-c3cccnc3F)ccc1Oc1cnc(-c3cccnc3F)cc12 [compound 550] | < 0.1 | 0.1 to 1 |  |  |
| N#Cc1ccccc1Oc1ccc2c(c1)[C@]1(COC(N)=N1)c1cc(Br)ccc1O2 [compound 997] |  |  | > 5 | IC50 (BACE1 [2]): > 5 µM |
| CC1(C)C=C(c2cnc3c(c2)[C@]2(COC(N)=N2)c2cc(-c4cccnc4)ccc2O3)CCO1 [compound 481] |  |  | < 0.1 | IC50 (BACE1 [2]; HEK cells): < 0.1 µM |
| NC1=NC2(CO1)c1cc(-c3ccc(F)nc3)ccc1Oc1ccc(-c3ccc(F)nc3)cc12 [compound 196] |  |  |  | IC50 (BACE1 [1]; Table III, IC50's in uM ranges): < 0.1 µM; IC50 (BACE1 [2]; Table III, IC50's in uM ranges): 0.1 to 1 µM |
| COc1ccc2c(c1)[C@@]1(COC(N)=N1)c1cc(Br)cc(F)c1O2 [compound 378] |  |  |  | IC50 (BACE1 [1]; [3]): 1 to 5 µM; IC50 (BACE1 [2]; [4]): > 5 µM |
| COc1cc(F)c2c(c1)[C@]1(COC(N)=N1)c1cc(-c3cncnc3)cnc1O2 [compound 584] | 1 to 5 | > 5 |  |  |
| C[C@@H]1OC(N)=N[C@]12c1cc(OCC(C)(C)C)ccc1Oc1ccc(-c3cncnc3)cc12 [126a, (4R,5S)-2′-(2,2-dimethylpropoxy)-5-methyl-7′-(5-pyrimidinyl)spiro[1,3-oxazole-4,9′-xanthen]-2-amine] |  |  |  | IC50 (BACE1 [1]; Table III, IC50's in uM ranges): 0.1 to 1 µM; IC50 (BACE1 [2]; Table III, IC50's in uM ranges): 1 to 5 µM |
| Cc1cncc(-c2ccc3c(c2)[C@@]2(COC(N)=N2)c2cc(Cl)ncc2O3)c1 [compound 327] |  |  |  | IC50 (BACE1 [1]; [3]): 0.1 to 1 µM; IC50 (BACE1 [2]; [4]): 1 to 5 µM |
